Our source for the IC50 values is paper PMC4685874, “Bromotyrosine-derived alkaloids from the Caribbean sponge Aplysina lacunosa” (Beilstein Journal of Organic Chemistry, 2015).

Holding throughout (type): cell-based
The subject of data set [1] is MCF-7 breast cancer cell line. Put plainly: WST-1 cell proliferation (cytotoxicity) assay, MCF-7. Particulars: WST-1, incubated for 5 days. On the procedure:
(§1) The cytotoxicity was determined using WST-1 cell proliferation assays. Targeting cell lines are L929 mouse fibroblasts, KB-31 epidermoid carcinoma, and MCF-7 breast cancer cell lines which were incubated for 5 days with the test substances. The acute toxicity was determined using the FS4-LTM conditional immortalization human fibroblasts cell line which was incubated for 24 hours with the test compounds.
On the technique in general: Formazan colour is commonly taken as a measure of viable cells.

Test in data set [2]: as above
Particulars: human, MCF-7 breast cancer cell line, WST-1, incubated for 5 days. The method, then: as §1

The subject of data set [3] is FS4-LTM conditional immortalization human fibroblasts. Briefly: Acute toxicity, WST-1 assay, FS4-LTM. Particulars: incubated for 24 hours, read-out: Cytotoxicity (acute toxicity) IC50 FS4-LTM. On the procedure:
as §1

The nature of data set [4]: Acute toxicity, WST-1 assay, FS4-LTM. Particulars: human, FS4-LTM conditionally immortalized fibroblasts, FS4-LTM conditional immortalization human fibroblasts, incubated for 24 hours; read-out: Cytotoxicity (acute toxicity) IC50 FS4-LTM. On the procedure:
as §1

Data set [5] has as its system KB-31 epidermoid carcinoma cells. Put plainly: WST-1 cell proliferation (cytotoxicity) assay, KB-31. Particulars: WST-1, incubated for 5 days. On the procedure:
as §1

Test in data set [6]: as above
Particulars: human, WST-1, incubated for 5 days. On the procedure:
as §1

Data set [7] can be described thus: WST-1 cell proliferation (cytotoxicity) assay, L929. Particulars: L929 mouse fibroblasts, WST-1, incubated for 5 days. The method, then: as §1
Where [8] appears, read: KB-31 epidermoid carcinoma cells.

In general, IC50 refers to the midpoint of a concentration-inhibition curve. On to `COC1=C(Br)[C@H](O)[C@@]2(C=C1Br)CC(C(=O)NC[C@@H](O)c1cc(Br)c(OCCCNC(C)=O)c(Br)c1)=NO2` [Compound 2, aplysinin A], for which the concentration for half-maximal inhibition (IC50) amounted to 77.5 µM in data set [1], 32.2 µM in data set [3] and 25.8 µM in data set [5]. The concentration for half-maximal inhibition (IC50) at 5 days in data set [2] (MCF-7 breast cancer cells) was found to be 78 µM; in data set [6] (setting [8]), 26 µM. In data set [4], the IC50 at 24 hours turned out to be 32 µM.

As for `COC1=C(Br)[C@H](O)[C@@]2(C=C1Br)CC(C(=O)NCCc1cc(Br)c(OCC(O)CNC(=O)C3=NO[C@]4(C=C(Br)C(OC)=C(Br)[C@@H]4O)C3)c(Br)c1)=NO2` (stereo partly shown) [Compound 7, 19-deoxyfistularin-3], the half-inhibitory concentration (IC50) at 5 days in data set [2] was 60 µM.

In turn, `COC(=O)Cc1cc(Br)c(O)c(Br)c1O` [Compound 17, subereaphenol B] had an IC50 at 5 days in data set [2] (MCF-7 breast cancer cells) of 64.8 µM.

`COC1=C(Br)[C@@H]2OC(=O)C[C@]2(O)C=C1Br` [Compound 16, aeroplysinin-2] came in with a half-maximal inhibitory concentration (IC50) at 5 days in data set [2] of 96.3 µM.

In the case of `COC1=C(Br)[C@H](O)[C@@]2(C=C1Br)CC(C(=O)NCC(O)COc1c(Br)cc(C(O)CNC(=O)C3=NO[C@]4(C=C(Br)C(OC)=C(Br)[C@@H]4O)C3)cc1Br)=NO2` (stereo partly shown) [Compound 5, fistularin-3], in data set [2], half-maximal inhibition (IC50 at 5 days) required 207 µM.

With `COC1=C(Br)[C@H](O)[C@@]2(C=C1Br)CC(C(=O)NCCCOc1c(Br)cc(CCNC(=O)C3=NO[C@]4(C=C(Br)C(OC)=C(Br)[C@@H]4O)C3)cc1Br)=NO2` [Compound 6, 11,19-dideoxyfistularin-3], the IC50 at 5 days is 118 µM in data set [7] and 88.2 µM in data set [6] (KB-31 epidermoid carcinoma).

In turn, `COC1=C(Br)[C@H](O)[C@@]2(C=C1Br)CC(C(=O)NCCCOc1c(Br)cc(C(O)CNC(=O)C3=NO[C@]4(C=C(Br)C(OC)=C(Br)[C@@H]4O)C3)cc1Br)=NO2` (stereo partly shown) [Compound 8, 11-deoxyfistularin-3] yielded an IC50 at 5 days in data set [2] (MCF-7 breast cancer cells) of 47.2 µM. Moreover, the IC50 at 24 hours in data set [4] was determined as 87.3 µM.

In turn, `COC1=C(Br)[C@H](O)[C@@]2(C=C1Br)CC(C(=O)NCCc1cc(Br)c(OCCCN)c(Br)c1)=NO2` [Compound 10, hexadellin B] yielded an IC50 at 5 days in data set [2] (MCF-7 breast cancer cells) of 90.6 µM. Besides, the IC50 at 24 hours in data set [4] amounted to 73.4 µM.

`COC1=C(Br)[C@H](O)[C@@]2(C=C1Br)CC(C(=O)NCCCOc1ccc(CCN)cc1Br)=NO2` [Compound 4, 14-debromoaraplysillin I]: the IC50 at 5 days in data set [2] (MCF-7 breast cancer cells) is 78.6 µM; in data set [7] it was 94.3 µM.

Consider `COC1=C(Br)[C@H](O)[C@@]2(C=C1Br)CC(C(=O)NCCCOc1ccc([C@H](O)CNC(=O)C3=NO[C@]4(C=C(Br)C(OC)=C(Br)[C@@H]4O)C3)cc1Br)=NO2` [Compound 1, 14-debromo-11-deoxyfistularin-3], for which the half-inhibitory concentration (IC50) in data set [5] was 68.8 µM. In data set [6] (setting [8]), this molecule showed a half-inhibitory concentration (IC50) at 5 days of 69 µM.

With `CNc1nc(CCCNC(=O)C2=NO[C@]3(C=C(Br)C(OC)=C(Br)[C@@H]3O)C2)c[nH]1` [Compound 15, N-methyl-aerophobin-2], the IC50 at 5 days in data set [7] is 55.9 µM; in data set [6] (setting [8]) it was 48.9 µM.
